# Laboratory results as given in paper PMC7531286 (Phytomedicine, 2020).
# pKd: −log10 of the molar value.
# Legend:
# [1] = molecular target: SARS-CoV-2 spike protein (S1 subunit, His tag) (Severe acute respiratory syndrome coronavirus 2, UniProt P0DTC2); experiment: biochemical; format: binding
# [2] = molecular target: MERS-CoV spike protein (S1 subunit, His tag) (Middle East respiratory syndrome-related coronavirus, UniProt K9N5Q8); experiment: biochemical; format: binding
# [3] = molecular target: SARS-CoV spike protein (S1 subunit, His tag) (Severe acute respiratory syndrome coronavirus, UniProt P59594); experiment: biochemical; format: binding
# [4] = molecular target: SARS-CoV-2 S-RBD/ACE2 interaction (Severe acute respiratory syndrome coronavirus 2, UniProt P0DTC2); format: cell-based
# [5] = tested on: mouse aorta smooth muscle cells (MASMCs); experiment: MTT cell toxicity assay, MASMCs; settings: at high concentrations (100 μM)
# Chain of MERS-CoV spike protein (S1 subunit, His tag) (K9N5Q8 18-751 limits assumed): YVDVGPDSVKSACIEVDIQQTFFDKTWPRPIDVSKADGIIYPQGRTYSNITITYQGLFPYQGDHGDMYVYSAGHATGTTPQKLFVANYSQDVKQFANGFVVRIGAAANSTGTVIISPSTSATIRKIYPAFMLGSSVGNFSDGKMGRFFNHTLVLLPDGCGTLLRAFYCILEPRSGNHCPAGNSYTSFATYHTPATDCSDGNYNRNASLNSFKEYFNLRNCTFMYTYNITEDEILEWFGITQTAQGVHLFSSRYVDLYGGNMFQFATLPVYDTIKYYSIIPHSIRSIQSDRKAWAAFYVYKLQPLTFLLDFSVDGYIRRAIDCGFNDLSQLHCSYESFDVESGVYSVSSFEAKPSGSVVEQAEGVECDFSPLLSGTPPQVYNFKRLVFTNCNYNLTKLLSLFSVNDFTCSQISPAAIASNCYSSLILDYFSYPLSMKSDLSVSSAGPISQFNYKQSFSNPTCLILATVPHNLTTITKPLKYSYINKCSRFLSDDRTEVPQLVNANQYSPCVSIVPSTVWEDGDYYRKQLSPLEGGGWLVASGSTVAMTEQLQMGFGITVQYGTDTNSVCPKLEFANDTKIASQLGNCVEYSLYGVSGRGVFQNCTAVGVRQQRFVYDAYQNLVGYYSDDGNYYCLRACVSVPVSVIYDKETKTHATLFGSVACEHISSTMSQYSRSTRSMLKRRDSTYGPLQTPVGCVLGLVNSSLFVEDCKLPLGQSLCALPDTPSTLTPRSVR
Compound,pKd [1],pKd [2],pKd [3],Disruption of the SARS-CoV-2 S-RBD/ACE2 interaction in cells [4],Cell toxicity to MASMCs [5]
"CC(C)=CCC[C@](C)(O[C@@H]1O[C@H](CO[C@@H]2O[C@H](CO)[C@@H](O)[C@H](O)[C@H]2O)[C@@H](O)[C@H](O)[C@H]1O)[C@H]1CC[C@]2(C)[C@@H]1[C@H](O)C[C@@H]1[C@@]3(C)CC[C@H](O[C@@H]4O[C@H](CO)[C@@H](O)[C@H](O)[C@H]4O[C@@H]4O[C@H](CO)[C@@H](O)[C@H](O)[C@H]4O)C(C)(C)[C@@H]3CC[C@]12C [ZZY-9, Ginsenoside Rb1]",6.33,5.46,4.53,,
"CC(C)=CCC[C@](C)(O[C@@H]1O[C@H](CO[C@@H]2OC[C@@H](O)[C@H](O)[C@H]2O)[C@@H](O)[C@H](O)[C@H]1O)[C@H]1CC[C@]2(C)[C@@H]1[C@H](O)C[C@@H]1[C@@]3(C)CC[C@H](O[C@@H]4O[C@H](CO)[C@@H](O)[C@H](O)[C@H]4O[C@@H]4O[C@H](CO)[C@@H](O)[C@H](O)[C@H]4O)C(C)(C)[C@@H]3CC[C@]12C [ZZY-13, Ginsenoside Rb3]",6.00,6.60,5.70,could disrupt,no cell toxicity
"CC1(C)[C@@H](O[C@H]2O[C@H](C(=O)O)[C@@H](O)[C@H](O)[C@H]2O[C@@H]2O[C@H](C(=O)O)[C@@H](O)[C@H](O)[C@H]2O)CC[C@]2(C)[C@H]3C(=O)C=C4[C@@H]5C[C@@](C)(C(=O)O)CC[C@]5(C)CC[C@@]4(C)[C@]3(C)CC[C@@H]12 [ZZY-44, Glycyrrhizic acid]",,6.33,4.18,could disrupt,no cell toxicity
"COc1ccc2cc3[n+](cc2c1OC)CCc1cc2c(cc1-3)OCO2 [ZZY-54, Berberine Chloride]",5.91,5.13,4.62,,
